Patent publication US20140296223A1, “METHOD FOR REGULATING SKIN PIGMENTATION” (THE GENERAL HOSPITAL CORPORATION, priority 2011, published 2014)

Experiments:
[1] = system: Microphthalmia Transcription Factor (MITF); assay: TRPM1-luciferase reporter screen for MITF antagonists in Skme15 melanoma cells; type: cell-based, human; details: screen, suppression of TRPM1-luciferase activity, Skme15 cells
Source text: In order to carry out a successful MITF antagonist screen, the inventors utilized a TRPM1-luciferase reporter. […] Therefore, the TRPM1-luciferase reporter stably integrated into melanoma cells is effective for the screening assay. The use of melanoma cells, while less perfectly relevant than primary human melanocytes, afforded the advantages of speed and reproducibility for the screen.
In order to engineer a screen which broadly suppress MITF activity either by suppression of MITF expression or by inhibition of MITF activity, the inventors utilized a luciferase reporter containing the promoter of a strong direct transcriptional target of MITF, i.e., TRPM1 gene, the inventors have identified the active ingredients having the ability of inhibiting the expression or activation of Microphthalmia Transcription Factor (MITF) for medical or esthetic benefit. The inventors have previously identified the TRPM1 gene (also called “Melastatin”) as a direct target of MITF, which contains numerous MITF binding sites, and which directly responds in potent fashion to MITF overexpression (Miller A J, Du J, Rowan S, Hershey C L, Widlund H R, Fisher D E: Transcriptional regulation of the melanoma prognostic marker melastatin (TRPM1) by MITF in melanocytes and melanoma, Cancer Res 2004, 64:509-516). TRPM1 expression also correlates closely to MITF expression within human melanoma cell lines, as well as in clinical pigmented lesions (nevi and melanomas).
The TRPM1 promoter was ligated to the luciferase gene and inserted into a retroviral vector as well as a lentiviral vector. The lentiviral vector was used to infect primary human melanocytes, which then was subjected to a primary screen using the Broad Chemical Genetics core screening facility, and its natural products/extracts libraries. As backup, the retroviral vector was used to stably integrate into the genome of melanoma cells, which can be used for the identical small molecule screen. Screen optimization was carried out using forskolin and MSH as positive control small molecules (which upregulate cAMP and MITF expression (D'Orazio J A, Nobuhisa T, Cui R, Arya M, Spry M, Wakamatsu K, Igras V, Kunisada T, Granter S R, Nishimura E K, Ito S, Fisher D E: Topical drug rescue strategy and skin protection based on the role of Mc1r in UV-induced tanning, Nature 2006, 443:340-344)). Small molecules which suppress MSH induced TRPM1-luciferase without altering cell numbers or viability, represent initial “hits” in this screen. Negative control includes a constitutive luciferase vector within the same cells (eg driven by a constitutive promoter such as thymidine kinase promoter), to control for nonspecific inhibitors of basal transcriptional machinery-something which would otherwise be assessed in detail during secondary/tertiary analyses of candidate hits.
The human melanoma cell line Skme15 was utilized due to the advantageous growth properties as well as the inventors' prior experience that Skme15 expresses a typical level of MITF protein. […] Therefore, an integrated TRPM1-luciferase reporter was generated, and the subsequent cells were cloned twice (serially) to assure purity of the reporter cell population. Cells were maintained in drug selection to assure maintenance of the luciferase reporter (when drug was omitted, eventual loss of the luciferase signal was observed). Following re-cloning, distinct isolates were selected for further use on the basis of clonogenic growth on 384 well plates, as required for the small molecule screen. A positive control for suppression of TRPM1-luciferase signal utilized: a lentivirus encoding shRNA against MITF. […] The day-to-day variability in plating efficiency was analyzed, and found very high reproducibility in the line which was selected for further use in the screen.
The screen was carried out with a library from the Broad Institute comprising a mixture of natural products, known bioactives, and additional compounds (a total of about 13,000 compounds). […]

Skme15 = assay: Toxicity with fluorescence viability probe (CellTiter-Fluo Cell Viability Assay); type: cell-based, human; details: composite of the variation between drug-treated and control divided by the standard error
Method: Although the shape of the dose-response can vary among hits, the inventors chose to include all candidates which produce dose-dependent effects. The fourth criterion which was determined is the IC50 (described formally as qAC50) which represents the half-maximal suppression dose. Most of the candidate hits resided in the high nanomolar to low micromolar range by this criterion (all of these validation data are listed in Table 1). The fifth criterion was maximal suppression (at any dose), which represented the magnitude of suppression which was attainable regardless of the dose required to achieve it. […] The sixth criterion to be determined is the Log P partition coefficient, which is a predictor of lipophilicity. For this, the inventors have used the method of Ghose and Crippen to calculate the predicted octanol-water partition coefficient (J. Comp. Chem. 9, 80(1988)). While this is only an estimate of potential skin penetration, the analysis was carried out because it helps in prioritizing likelihood of topical effectiveness, in theory. The seventh criterion was an analysis of toxicity utilizing a fluorescence viability probe (CellTiter-Fluo™ Cell Viability Assay (Promega)). Interpretation of this endpoint is complicated by the fact that it represents a composite of the variation between drug-treated and control divided by the standard error The results shown in Table 1 indicate 34 candidate molecules which satisfied all of the criteria outlined above. […] Most of their potencies ranged slightly below or above 1 uM. While the lipophilicity scores remain imperfect predictors of skin penetration capability. However, numbers of >3 can be more likely to penetrate.

| Compound | Z-Score [1] | Viability z-score (treated minus control, divided by standard error) (Skme15) |
| --- | --- | --- |
| Cc1cccc(-c2nnc(SCC(=O)Nc3ccccc3F)o2)c1 [N-(2-fluorophenyl)-2-{[5-(3-methylphenyl)-1,3,4-oxadiazol-2-yl]thio}acetamide] | −10.7661 | −0.0206 |
| COc1ccc(OC)c(S(=O)(=O)N2CCC(C(=O)Nc3ccc(Cl)c(C(F)(F)F)c3)CC2)c1 [N-[4-chloro-3-(trifluoromethyl)phenyl]-1-[(2,5-dimethoxyphenyl)sulfonyl]piperidine-4-carboxamide] | −9.871 | −0.2442 |
| CCOC(=O)COc1cccc(-c2nc3ccccc3s2)c1 [Ethyl-[3-(1,3-benzothiazol-2-yl)phenoxy]acetate] | −9.663 | −0.0206 |
| COc1cc(CO)ccc1OCc1cccc(C(=O)O)c1 [3-{[4-(hydroxymethyl)-2-methoxyphenoxy]methyl}benzoic acid] | −10.9296 | −1.6406 |
| O=C(CCSc1nc(-c2ccccc2)cs1)Nc1ccccc1 [N-phenyl-3-[(4-phenyl-1,3-thiazol-2-yl)thio]propanamide] | −10.8255 | −0.2442 |
